The test system of one assay is pylorous ligated rats. The assay can be described thus: Antisecretory activity in the pylorous ligated rat model. Type of assay: in vivo, male Sprague-Dawley rats. Particulars: for inhibition in vivo at 12.5 mg/kg / inhibition in vivo at 25 mg/kg / inhibition in vivo at 50 mg/kg / inhibition in vivo at 100 mg/kg / inhibition in vivo at 6.3 mg/kg: Rattus norvegicus, 4 h; for inhibition in vivo at 12.5 mg/kg: oral dose 12.5 mg/kg; for inhibition in vivo at 6.3 mg/kg: oral dose 6.3 mg/kg. The procedure: To determine the antisecretory activity of the present compounds, the compounds were tested for such activity in pylorous ligated rats. In this test, male Sprague-Dawley rats weighing 170-190 g. were fasted for 24 hours. Water was allowed ad libitum. All groups were comprised of six rats. […] Water was withheld after drug administration. Ligation of the pyrloric sphincter was performed under ether anesthesia, and four hours after ligation the animals were sacrificed with CO2. The stomach was dissected out and the contents were expelled into a graduated centrifuge tube. The samples were centrifuged and the volume, less debris, was measured. Sample aliquots were titrated with 0.05 N NaOH to determine acid concentration. Pepsin activity was determined on an auto analyzer using hemoglobin as the substrate by the method of Anson. Group means for volume, acid and pepsin concentrations, and pepsin outputs were compared for statistically significant differences from control means by Student's t-test.

Assay [1] relates to pentagastrin stimulated fistula dog. Nature of the assay: Antisecretory activity in the pentagastrin stimulated fistula dog. Particulars: pentagastrin 10 μg/kg s.c., 2 hours. Format: in vivo, female beagle dogs. The procedure:
In addition to the test described in Example XXXVI, some of the present compounds were tested in dogs.
In this test, female beagle dogs weighing 5.5-7.5 kg. were surgically provided with gastric fistulas at the ventral wall of the stomach near the greater curvature and just proximal to the antrum. The animals were allowed to recover for three to four weeks before handling and training were begun, and experiments were started six to eight weeks after surgery. The individually housed dogs were fasted for 20-24 hours before use. Water was allowed ad lib. Treatment selection was determined by a randomized schedule which included control groups given vehicle (0.5% Methocel® solution) only. During the test period each dog was secured in a standing position with one collar around the neck and another around the lower abdomen. Before drug administration, the cannula plug of the gastric fistula was removed and the pH of the gastric juice was checked. Animals with acidic gastric juice (pH 4.0 or less) were replaced with alternate dogs. Then the drug was administered intragastrically […] through a special gastric cannula instillation plug, 30 minutes prior to subcutaneous administration of a gastric stimulant (pentagastrin, 10 μg/kg).
For each dog, collection of gastric juice was begun immediately after administration of the gastric stimulant and continued for two hours. The volumes of collected gastric juices were measured. The acid concentration and pepsin activity were determined for all samples by automated procedures. For the dog data, as recorded in Table 2, below, group means for volume (ml), acid concentration (acidity, mEq/l), pepsin concentration (mg/ml), acid output (mEq/2 hr), and pepsin output (mg/2 hr) were compared with the respective control means using Student's t-test. The results were also expressed as percent inhibition of the respective individual mean control values.
Group means for volume, acid and pepsin concentrations, acid and pepsin outputs were compared for statistically significant differences from control means by Student's t-test.

Where [2] appears, read: read-out: Percent inhibition of acid output.
Where [3] appears, read: read-out: Percent inhibition of acidity.
Setting [4] is: read-out: Percent inhibition of volume.
Setting [5] is: oral dose 25 mg/kg, read-out: Percent inhibition of acid output.
Setting [6] is: oral dose 25 mg/kg, read-out: Percent inhibition of acidity.
Setting [7] is: oral dose 25 mg/kg, read-out: Percent inhibition of volume.
Where [8] appears, read: oral dose 50 mg/kg, negative sign means stimulated, read-out: Percent inhibition of pepsin.
Setting [9] is: oral dose 50 mg/kg, negative sign means stimulated, read-out: Percent inhibition of pepsin output.
The mark [10] stands for this setting: oral dose 50 mg/kg, read-out: Percent inhibition of acid output.
[11] abbreviates: oral dose 50 mg/kg, read-out: Percent inhibition of acidity.
The mark [12] stands for this setting: oral dose 50 mg/kg, read-out: Percent inhibition of volume.
The mark [13] stands for this setting: oral dose 100 mg/kg, read-out: Percent inhibition of acid output.
Setting [14] is: oral dose 100 mg/kg, read-out: Percent inhibition of acidity.
The mark [15] stands for this setting: oral dose 100 mg/kg, read-out: Percent inhibition of volume.
Setting [16] is: negative sign means stimulated, read-out: Percent inhibition of pepsin.
The mark [17] stands for this setting: read-out: Percent inhibition of pepsin output.
The mark [18] stands for this setting: oral dose 50 mg/kg, negative sign means stimulated.

Where a name gives a salt, the structure may show the parent alone. Read-outs that look alike come from different tables or passages of the source.

For `CCCCCC(C)C(C)c1cc(O)c(C2=CCN(Cc3ccccc3)CC2)c(O)c1.Cl` (stereo not drawn) [Example XIV, 2-(N-Benzyl-1,2,3,6-tetrahydro-4-pyridyl)-5-(1,2-dimethylheptyl) resorcinol hydrochloride], the inhibition in vivo at 12.5 mg/kg in the assay on pylorous ligated rats (setting [2]) was -17.3%; in the assay with pylorous ligated rats (setting [3]), -0.5%; in the assay on pylorous ligated rats (setting [4]), -5.9%. The inhibition in vivo at 25 mg/kg in the assay with pylorous ligated rats (setting [5]) was 12.5%; in the assay with pylorous ligated rats (setting [6]) it was 9.2%; in the assay with pylorous ligated rats (setting [7]), 4.9%. Moreover, the inhibition in vivo at 50 mg/kg with pylorous ligated rats (setting [8]) was 12.7%; with pylorous ligated rats (setting [9]) it was 52.4%; in the assay with pylorous ligated rats (setting [10]), 57.6%; in the assay on pylorous ligated rats (setting [11]) it was 24.7%; in the assay on pylorous ligated rats (setting [12]), 48.9%. Also, the inhibition in vivo at 100 mg/kg in the assay on pylorous ligated rats (setting [13]) amounted to 79.7%; with pylorous ligated rats (setting [14]), 31.6%; in the assay with pylorous ligated rats (setting [15]), 72.1%. Besides, the “% Inhibition of acid output” value in assay [1] (dose 10 mg/kg) was -10.4%. In addition, the “% Inhibition of acidity” value in assay [1] (dose 10 mg/kg) was found to be 1.2%. For the same compound, the “% Inhibition of pepsin” value in assay [1] (dose 10 mg/kg) is given as -10.0%. For the same compound, in assay [1] (dose 10 mg/kg), the “% Inhibition of pepsin output” value is given as -23.1%. The “% Inhibition of volume” value in assay [1] (dose 10 mg/kg) is recorded as -12.3%.
With `CC(C)c1cc(O)c(C2=CCN(C)CC2)c(O)c1.Cl` [Example VI, 2-(N-Methyl-1,2,3,6-tetrahydro-4-pyridyl)-5-isopropyl resorcinol hydrochloride], the inhibition in vivo at 6.3 mg/kg was -13.6% with pylorous ligated rats (setting [16]); 23.4% with pylorous ligated rats (setting [2]); 7% in the assay with pylorous ligated rats (setting [3]); 7% with pylorous ligated rats (setting [17]); 18.9% with pylorous ligated rats (setting [4]). Also, the inhibition in vivo at 12.5 mg/kg in the assay with pylorous ligated rats (setting [16]) is -25.3%; in the assay with pylorous ligated rats (setting [2]), 59.4%; in the assay on pylorous ligated rats (setting [3]), 21.6%; in the assay with pylorous ligated rats (setting [17]), 41.2%; in the assay on pylorous ligated rats (setting [4]), 49.8%. Besides, the inhibition in vivo at 25 mg/kg in the assay on pylorous ligated rats (oral dose 25 mg/kg, negative sign means stimulated, read-out: Percent inhibition of pepsin) is -22.3%; with pylorous ligated rats (setting [5]), 80.9%; with pylorous ligated rats (setting [6]), 49.9%; with pylorous ligated rats (oral dose 25 mg/kg, read-out: Percent inhibition of pepsin output) it was 60.2%; in the assay with pylorous ligated rats (setting [7]), 66.1%. The inhibition in vivo at 50 mg/kg is -38.6% in the assay with pylorous ligated rats (setting [8]); 54.7% in the assay on pylorous ligated rats (setting [9]); 84.4% in the assay on pylorous ligated rats (setting [10]); 51.7% in the assay with pylorous ligated rats (setting [11]); 67.3% in the assay with pylorous ligated rats (setting [12]). Besides, the inhibition in vivo at 100 mg/kg is -48.8% with pylorous ligated rats (oral dose 100 mg/kg, negative sign means stimulated, read-out: Percent inhibition of pepsin); 87.7% with pylorous ligated rats (setting [13]); 62.1% in the assay with pylorous ligated rats (setting [14]); 53.3% with pylorous ligated rats (oral dose 100 mg/kg, read-out: Percent inhibition of pepsin output); 67.5% with pylorous ligated rats (setting [15]). For the same compound, in assay [1] (dose 20 mg/kg), the “% Inhibition of acid output” value is reported as 26.6%. In assay [1] (dose 20 mg/kg), the “% Inhibition of acidity” value stood at 36.6%. Further, in assay [1] (dose 20 mg/kg), the “% Inhibition of pepsin” value came to 62.7%. For the same compound, in assay [1] (dose 20 mg/kg), the “% Inhibition of pepsin output” value was 57.1%. Besides, in assay [1] (dose 20 mg/kg), the “% Inhibition of volume” value was -17.6%.
Consider `CCCCCC(C)C(C)c1cc(O)c(C2=CC3CCC(C2)N3C)c(O)c1` (stereo not drawn) [Example XXV, 2-(N-Methyl-2,6-ethylidene-1,2,3,6-tetrahydro-4-pyridyl)-5-(1,2-dimethylheptyl) resorcinol hydrochloride], for which the inhibition in vivo at 50 mg/kg in the assay with pylorous ligated rats (setting [8]) stood at 1%; in the assay on pylorous ligated rats (setting [9]) it was 11%; in the assay on pylorous ligated rats (setting [10]) it was 29.4%; with pylorous ligated rats (setting [11]) it was 21.2%; in the assay with pylorous ligated rats (setting [12]), 9.7%.
For `CCCCCC(C)C(C)c1cc(O)c(C2CCN(CCc3ccccc3)CC2)c(O)c1` (stereo not drawn) [Example XXII, 2-(N-phenethyl-4-piperidino)-5-(1,2-dimethylheptyl) resorcinol hydrochloride], the inhibition in vivo at 50 mg/kg in the assay with pylorous ligated rats (setting [8]) was -7.1%; in the assay with pylorous ligated rats (setting [9]) it was 30.9%; with pylorous ligated rats (setting [10]), 37.6%; in the assay with pylorous ligated rats (setting [11]) it was 8.5%; in the assay with pylorous ligated rats (setting [12]), 37.3%.
In the case of `CCCCCC(C)C(C)c1cc(O)c(C2=CCN(Cc3ccccc3)CC2)c(OC)c1` (stereo not drawn) [Example XXVII, 2-(N-Benzyl-1,2,3,6-tetrahydro-4-pyridyl)-3-methoxy-5-(1,2-dimethylheptyl)phenol hydrochloride], the inhibition in vivo at 50 mg/kg in the assay with pylorous ligated rats (setting [8]) is 12.1%; in the assay on pylorous ligated rats (setting [9]), -8.6%; with pylorous ligated rats (setting [10]), -27.8%; with pylorous ligated rats (setting [11]), -5.6%.
Take `CCCCCC(C)C(C)c1cc(O)c(C2CCN(C)CC2)c(O)c1` (stereo not drawn) [XVII, 2-(N-Methyl-4-piperidino)-5-(1,2-dimethylheptyl) resorcinol hydrochloride]: the inhibition in vivo at 50 mg/kg in the assay on pylorous ligated rats (setting [8]) was found to be 40.5%; in the assay on pylorous ligated rats (setting [9]), 40.6%; with pylorous ligated rats (setting [10]), 38.5%; with pylorous ligated rats (setting [11]), 38.1%; in the assay with pylorous ligated rats (setting [12]), 0.3%.
As to `CC(C)c1cc(O)c(C2=CCN(C(C)C)CC2)c(O)c1` [XIII, 2-(N-Isopropyl-1,2,3,6-tetrahydro-4-pyridyl)-5-isopropyl resorcinol hydrochloride], the inhibition in vivo at 50 mg/kg in the assay with pylorous ligated rats (setting [8]) is 7.1%; in the assay with pylorous ligated rats (setting [9]) it was 36.4%; with pylorous ligated rats (setting [10]), 37.9%; in the assay with pylorous ligated rats (setting [11]) it was 9.7%; in the assay with pylorous ligated rats (setting [12]), 32%.
Take “2-(N-Propargyl-1,2,3,4-tetrahydro-4-pyridyl)-3-methoxy-5-(1,2-dimethylheptyl)phenol [XXIX]”: in the assay with pylorous ligated rats (oral dose 25 mg/kg), the “Percent inhibition of acid output” value worked out at 7.8%, the “Percent inhibition of acidity” value is given as 18.6% and the “Percent inhibition of volume” value is -13.0%. Besides, in the assay on pylorous ligated rats (oral dose 50 mg/kg), the “Percent inhibition of acid output” value was 45.6%, the “Percent inhibition of acidity” value was 50.6% and the “Percent inhibition of volume” value is recorded as -5.7%. In the assay with pylorous ligated rats (setting [18]), the “Percent inhibition of pepsin” value turned out to be 21.0% and the “Percent inhibition of pepsin output” value is reported as 23.9%. In addition, in the assay on pylorous ligated rats (oral dose 100 mg/kg), the “Percent inhibition of acid output” value was 49.5%, the “Percent inhibition of acidity” value came out at 58.1% and the “Percent inhibition of volume” value is -21.8%.
